# Experiments:
# [1] = system: HepG2; test: Anticancer activity against 4 Gy gamma-irradiated human HepG2 cells assessed as viable cells after 48 hrs at 25 uM by SRB assay (reference value: 21.2%); format: functional; settings: HepG2, light or radiation study, read-out: Activity
# [2] = system: MCF7; test: Cytotoxicity against human MCF7 cells assessed as inhibition of cell proliferation after 24 hrs by SRB assay; format: functional, cell-based; settings: MCF7, 24 h
# [3] = system: HepG2; test: Anticancer activity against human HepG2 cells assessed as viable cells after 48 hrs at 40 uM by SRB assay relative to control; format: functional; settings: HepG2, 48 h, read-out: Activity
# [4] = system: HepG2; test: Cytotoxicity against human HepG2 cells assessed as inhibition of cell proliferation after 24 hrs by SRB assay; format: functional, cell-based; settings: HepG2, 24 h
# [5] = system: HepG2; test: Anticancer activity against human HepG2 cells assessed as viable cells after 48 hrs at 12.5 uM by SRB assay relative to control; format: functional; settings: HepG2, 48 h, read-out: Activity
# [6] = system: HepG2; test: Anticancer activity against 4 Gy gamma-irradiated human HepG2 cells assessed as viable cells after 48 hrs at 40 uM by SRB assay (reference value: 21.2%); format: functional; settings: HepG2, light or radiation study, read-out: Activity
# [7] = system: HepG2; test: Anticancer activity against human HepG2 cells assessed as viable cells after 48 hrs at 5 uM by SRB assay relative to control; format: functional; settings: HepG2, 48 h, read-out: Activity
# [8] = system: HepG2; test: Anticancer activity against 4 Gy gamma-irradiated human HepG2 cells assessed as viable cells after 48 hrs at 5 uM by SRB assay (reference value: 21.2%); format: functional; settings: HepG2, light or radiation study, read-out: Activity
# [9] = system: HepG2; test: Anticancer activity against human HepG2 cells assessed as viable cells after 48 hrs at 25 uM by SRB assay relative to control; format: functional; settings: HepG2, 48 h, read-out: Activity
# [10] = system: HepG2; test: Anticancer activity against 4 Gy gamma-irradiated human HepG2 cells assessed as viable cells after 48 hrs at 12.5 uM by SRB assay (reference value: 21.2%); format: functional; settings: HepG2, light or radiation study, read-out: Activity
# [11] = system: MCF7; test: Anticancer activity against 4 Gy gamma-irradiated human MCF7 cells assessed as viable cells after 48 hrs at 25 uM by SRB assay (reference value: 7.3%); format: functional; settings: MCF7, light or radiation study, read-out: Activity
# [12] = system: MCF7; test: Anticancer activity against 4 Gy gamma-irradiated human MCF7 cells assessed as viable cells after 48 hrs at 40 uM by SRB assay (reference value: 7.3%); format: functional; settings: MCF7, light or radiation study, read-out: Activity
# [13] = system: MCF7; test: Anticancer activity against human MCF7 cells assessed as viable cells after 48 hrs at 5 uM by SRB assay relative to control; format: functional; settings: MCF7, 48 h, read-out: Activity
# [14] = system: MCF7; test: Anticancer activity against 4 Gy gamma-irradiated human MCF7 cells assessed as viable cells after 48 hrs at 5 uM by SRB assay (reference value: 7.3%); format: functional; settings: MCF7, light or radiation study, read-out: Activity
# [15] = system: MCF7; test: Anticancer activity against human MCF7 cells assessed as viable cells after 48 hrs at 25 uM by SRB assay relative to control; format: functional; settings: MCF7, 48 h, read-out: Activity
# [16] = system: MCF7; test: Anticancer activity against human MCF7 cells assessed as viable cells after 48 hrs at 12.5 uM by SRB assay relative to control; format: functional; settings: MCF7, 48 h, read-out: Activity
# [17] = system: MCF7; test: Anticancer activity against human MCF7 cells assessed as viable cells after 48 hrs at 40 uM by SRB assay relative to control; format: functional; settings: MCF7, 48 h, read-out: Activity
# [18] = system: MCF7; test: Anticancer activity against 4 Gy gamma-irradiated human MCF7 cells assessed as viable cells after 48 hrs at 12.5 uM by SRB assay (reference value: 7.3%); format: functional; settings: MCF7, light or radiation study, read-out: Activity
# [19] = system: HepG2; test: Anticancer activity against 4 Gy gamma-irradiated human HepG2 cells assessed as viable cells after 48 hrs at 25 uM by SRB assay (reference value: 18.73%); format: functional; settings: HepG2, light or radiation study, read-out: Activity
# [20] = system: HepG2; test: Anticancer activity against 4 Gy gamma-irradiated human HepG2 cells assessed as viable cells after 48 hrs at 12.5 uM by SRB assay (reference value: 18.73%); format: functional; settings: HepG2, light or radiation study, read-out: Activity
# [21] = system: HepG2; test: Anticancer activity against 4 Gy gamma-irradiated human HepG2 cells assessed as viable cells after 48 hrs at 5 uM by SRB assay (reference value: 18.73%); format: functional; settings: HepG2, light or radiation study, read-out: Activity
# [22] = system: HepG2; test: Anticancer activity against 4 Gy gamma-irradiated human HepG2 cells assessed as viable cells after 48 hrs at 40 uM by SRB assay (reference value: 18.73%); format: functional; settings: HepG2, light or radiation study, read-out: Activity
SMILES,IC50 [2],IC50 [4],also measured
Nc1nc(=O)[nH]c2c1c(-c1ccccc1)cn2-c1ccc(S(=O)(=O)Nc2nccs2)cc1,8.32 µM,3.49 µM,viability at 25 µM [1]: 78.3%; viability at 40 µM [3]: 63.6%; viability at 12.5 µM [5]: 47.7%; viability at 40 µM [6]: 81.7%; viability at 5 µM [7]: 22.3%; viability at 5 µM [8]: 61.7%; viability at 25 µM [9]: 63.9%; viability at 12.5 µM [10]: 69.2%
Cc1nc2c(c(-c3ccccc3)cn2-c2ccc(S(=O)(=O)Nc3ccccn3)cc2)c(=O)[nH]1,5.1 µM,3.15 µM,
Nc1nc(=O)[nH]c2c1c(-c1ccccc1)cn2-c1ccc(S(=O)(=O)Nc2ccccn2)cc1,3.9 µM,4.3 µM,
Nc1nc(=S)[nH]c2c1c(-c1ccccc1)cn2-c1ccc(S(=O)(=O)Nc2nccs2)cc1,3.12 µM,4.12 µM,
Nc1nc(=S)[nH]c2c1c(-c1ccccc1)cn2-c1ccc(S(=O)(=O)Nc2ccccn2)cc1,3.8 µM,4.1 µM,
O=C(CNc1ccc(S(=O)(=O)Nc2nccs2)cc1)c1ccccc1,8.89 µM,6.78 µM,
O=C(CNc1ccc(S(=O)(=O)Nc2ccccn2)cc1)c1ccccc1,7.56 µM,6.75 µM,
N#Cc1c(-c2ccccc2)cn(-c2ccc(S(=O)(=O)Nc3nccs3)cc2)c1N,3.49 µM,5.36 µM,viability at 25 µM [11]: 82.3%; viability at 40 µM [12]: 85.8%; viability at 5 µM [13]: 11.3%; viability at 5 µM [14]: 41.5%; viability at 25 µM [15]: 71.3%; viability at 12.5 µM [16]: 42.5%; viability at 40 µM [17]: 72%; viability at 12.5 µM [18]: 65.3%
N#Cc1c(-c2ccccc2)cn(-c2ccc(S(=O)(=O)Nc3ccccn3)cc2)c1N,4.6 µM,5.3 µM,
O=c1[nH]cnc2c1c(-c1ccccc1)cn2-c1ccc(S(=O)(=O)Nc2nccs2)cc1,6.21 µM,5.3 µM,
O=c1[nH]cnc2c1c(-c1ccccc1)cn2-c1ccc(S(=O)(=O)Nc2ccccn2)cc1,5.32 µM,4.67 µM,
Nc1ncnc2c1c(-c1ccccc1)cn2-c1ccc(S(=O)(=O)Nc2nccs2)cc1,6.45 µM,4.24 µM,
Nc1ncnc2c1c(-c1ccccc1)cn2-c1ccc(S(=O)(=O)Nc2ccccn2)cc1,6.34 µM,4.09 µM,
N#Cc1c(-c2ccccc2)cn(-c2ccc(S(=O)(=O)Nc3nccs3)cc2)c1NC(N)=O,8.05 µM,4.02 µM,
N#Cc1c(-c2ccccc2)cn(-c2ccc(S(=O)(=O)Nc3ccccn3)cc2)c1NC(N)=O,7.34 µM,4.12 µM,
CC(=O)Nc1c(C#N)c(-c2ccccc2)cn1-c1ccc(S(=O)(=O)Nc2nccs2)cc1,7.24 µM,4.02 µM,
CC(=O)Nc1c(C#N)c(-c2ccccc2)cn1-c1ccc(S(=O)(=O)Nc2ccccn2)cc1,11.8 µM,3.49 µM,viability at 25 µM [1]: 82.5%; viability at 40 µM [3]: 69.9%; viability at 12.5 µM [5]: 53.5%; viability at 40 µM [6]: 82.5%; viability at 5 µM [7]: 30.3%; viability at 5 µM [8]: 57.4%; viability at 25 µM [9]: 62.7%; viability at 12.5 µM [10]: 69.5%
N#Cc1c(-c2ccccc2)cn(-c2ccc(S(=O)(=O)Nc3nccs3)cc2)c1NC(=O)CCC(=O)O,9.12 µM,3.75 µM,viability at 25 µM [1]: 71.8%; viability at 40 µM [3]: 49.6%; viability at 12.5 µM [5]: 39.6%; viability at 40 µM [6]: 79.4%; viability at 5 µM [7]: 25%; viability at 5 µM [8]: 60.6%; viability at 25 µM [9]: 36%; viability at 12.5 µM [10]: 72.6%
N#Cc1c(-c2ccccc2)cn(-c2ccc(S(=O)(=O)Nc3ccccn3)cc2)c1NC(=O)CCC(=O)O,8.32 µM,3.75 µM,viability at 25 µM [19]: 89.2%; viability at 12.5 µM [20]: 84.4%; viability at 40 µM [3]: 78%; viability at 12.5 µM [5]: 60.3%; viability at 5 µM [7]: 15.1%; viability at 25 µM [9]: 72%; viability at 5 µM [21]: 81.4%; viability at 40 µM [22]: 87.7%
N#Cc1c(-c2ccccc2)cn(-c2ccc(S(=O)(=O)Nc3nccs3)cc2)c1N1C(=O)CCC1=O,6.71 µM,4.56 µM,
N#Cc1c(-c2ccccc2)cn(-c2ccc(S(=O)(=O)Nc3ccccn3)cc2)c1N1C(=O)CCC1=O,9.93 µM,5.36 µM,
Cc1nc2c(c(-c3ccccc3)cn2-c2ccc(S(=O)(=O)Nc3nccs3)cc2)c(=O)[nH]1,5.8 µM,3.39 µM,
COc1cccc2c1C(=O)c1c(O)c3c(c(O)c1C2=O)C[C@@](O)(C(=O)CO)C[C@@H]3O[C@H]1C[C@H](N)[C@H](O)[C@H](C)O1 [DOXORUBICIN],,5.23 µM,
